Source: US10131652B2, “Pyrimidinyloxy benzene derivatives as herbicides” (E. I. DU PONT DE NEMOURS AND COMPANY, priority 2014, dated 2018)

Experiments:
Assay type in all cases: in vivo
[1] = test system: barnyardgrass (Echinochloa crus-galli); assay: Test C flooded paddy test plant response; conditions: Flood, 250 g ai/ha; scale of 0 to 100 where 0 is no effect and 100 is complete control; 13 to 15 days
Summary of the method: (§1)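 Plants grown to the 2-leaf stage; pots flooded to 3 cm above soil, test compounds applied directly to paddy water, depth maintained throughout. Greenhouse for 13 to 15 days, then visual rating versus controls on a 0–100 scale (0 no effect, 100 complete control).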

[2] = test system: small-flower umbrella sedge (Cyperus difformis); assay: Test C flooded paddy test plant response; conditions: Flood, 250 g ai/ha; scale of 0 to 100 where 0 is no effect and 100 is complete control; 13 to 15 days
Summary of the method: as §1

[3] = test system: rice (Oryza sativa); assay: Test C flooded paddy test plant response; conditions: Flood, 250 g ai/ha; scale of 0 to 100 where 0 is no effect and 100 is complete control; 13 to 15 days
Summary of the method: as §1

[4] = test system: ducksalad (Heteranthera limosa); assay: Test C flooded paddy test plant response; conditions: Flood, 250 g ai/ha; scale of 0 to 100 where 0 is no effect and 100 is complete control; 13 to 15 days
Summary of the method: as §1

[5] = test system: blackgrass (Alopecurus myosuroides); assay: Test B postemergence plant response
Summary of the method: (§2)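 Seedlings in a loam soil and sand mix received a postemergence application of the formulated chemicals at the one- to two-leaf stage (2–10 cm tall). They were kept in a greenhouse for roughly 10 days, then scored for injury relative to untreated plants, 0 meaning no effect and 100 complete control.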

[6] = test system: galium (catchweed bedstraw, Galium aparine); assay: Test B postemergence plant response
Summary of the method: as §2

[7] = test system: barnyardgrass (Echinochloa crus-galli); assay: Test B pre-/postemergence plant response
Summary of the method: (§3)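 Ratings reflect visual injury versus untreated controls, from 0 for no effect to 100 for complete control, assessed roughly 10 days after treatment. Formulation: non-phytotoxic solvent mix with surfactant; pre- and postemergence sprays on plants grown in loam soil and sand.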

[8] = test system: corn (Zea mays); assay: Test B pre-/postemergence plant response
Summary of the method: as §3

[9] = test system: pigweed (Amaranthus retroflexus); assay: Test B pre-/postemergence plant response
Summary of the method: as §3

[10] = test system: ragweed (common ragweed, Ambrosia elatior); assay: Test B pre-/postemergence plant response
Summary of the method: as §3

[11] = test system: Italian ryegrass (Lolium multiflorum); assay: Test B pre-/postemergence plant response
Summary of the method: as §3

[12] = test system: kochia (Kochia scoparia); assay: Test B pre-/postemergence plant response
Summary of the method: as §3

[13] = test system: wheat (Triticum aestivum); assay: Test B pre-/postemergence plant response
Summary of the method: as §3

[14] = test system: giant foxtail (Setaria faberii); assay: Test B pre-/postemergence plant response
Summary of the method: as §3

[15] = 125 g ai/ha, postemergence, 0 to 100 scale, 0 no effect, 100 complete control
[16] = Postemergence, 500 g ai/ha, 0 to 100 scale (0 no effect, 100 complete control)
[17] = Preemergence, 125 g ai/ha, 0 to 100 scale (0 no effect, 100 complete control)
[18] = Preemergence, 500 g ai/ha, 0 to 100 scale where 0 is no effect and 100 is complete control
[19] = Postemergence, 31 g ai/ha, 0 to 100 scale (0 no effect, 100 complete control)
[20] = 31 g ai/ha, Preemergence, 0 to 100 scale where 0 is no effect and 100 is complete control

SMILES | Barnyardgrass plant response rating [1] | Sedge, Umbrella plant response rating [2] | Rice plant response rating [3] | Ducksalad plant response rating [4] | Plant response rating, Blackgrass [5, 15] | Plant response rating, Galium [6, 15] | Plant response rating, Barnyardgrass [7, 15] | Barnyardgrass plant response rating [7, 17] | Plant response rating, Corn [8, 15] | Plant response rating, Pigweed [9, 15] | Pigweed plant response rating [9, 17] | Plant response rating, Ragweed [10, 15] | Ragweed plant response rating [10, 17] | Plant response rating, Ryegrass, Italian [11, 15] | Ryegrass, Italian plant response rating [11, 17] | Plant response rating, Kochia [12, 15] | Kochia plant response rating [12, 17] | Plant response rating, Wheat [13, 15] | Plant response rating, Foxtail, Giant [14, 15] | Foxtail, Giant plant response rating [14, 17] | other results
Cn1ccnc1-c1ccccc1Oc1ncc(Br)cn1 [Compound 152] | 0 | 0 | 0 | 0 | 0 | 0 | 0 | 0 | 0 | 0 | 0 | 0 | 0 | 0 | 0 | 0 | 0 | 0 | 0 | 0 | Plant response rating, Blackgrass [5, 16]: 0; Plant response rating, Galium [6, 16]: 0; Plant response rating, Barnyardgrass [7, 16]: 0; Plant response rating, Barnyardgrass [7, 18]: 0; Plant response rating, Corn [8, 16]: 0; Plant response rating, Pigweed [9, 16]: 0; Plant response rating, Pigweed [9, 18]: 0; Plant response rating, Ragweed [10, 16]: 0; Plant response rating, Ragweed [10, 18]: 0; Plant response rating, Ryegrass, Italian [11, 16]: 0; Plant response rating, Ryegrass, Italian [11, 18]: 0; Plant response rating, Kochia [12, 16]: 0; Plant response rating, Kochia [12, 18]: 0; Plant response rating, Wheat [13, 16]: 0; Plant response rating, Foxtail, Giant [14, 16]: 0; Plant response rating, Foxtail, Giant [14, 18]: 0
Clc1cnc(Oc2ccccc2-c2ccno2)nc1 [Compound 154] | 0 | 0 | 0 | 0 | 0 | 0 | 0 | 0 | 0 | 0 | 0 | 0 | 0 | 0 | 0 | 0 | 0 | 0 | 0 | 0 | Plant response rating, Blackgrass [5, 19]: 0; Plant response rating, Galium [6, 19]: 0; Plant response rating, Barnyardgrass [7, 20]: 0; Plant response rating, Barnyardgrass [7, 19]: 0; Plant response rating, Corn [8, 19]: 0; Plant response rating, Pigweed [9, 20]: 0; Plant response rating, Pigweed [9, 19]: 0; Plant response rating, Ragweed [10, 20]: 0; Plant response rating, Ragweed [10, 19]: 0; Plant response rating, Ryegrass, Italian [11, 20]: 0; Plant response rating, Ryegrass, Italian [11, 19]: 0; Plant response rating, Kochia [12, 20]: 0; Plant response rating, Kochia [12, 19]: 0; Plant response rating, Wheat [13, 19]: 0; Plant response rating, Foxtail, Giant [14, 20]: 0; Plant response rating, Foxtail, Giant [14, 19]: 0
Brc1cnc(Oc2ccccc2-c2ccno2)nc1 [Compound 155] | 0 | 0 | 0 | 0 | 0 | 0 | 0 | 0 | 0 | 0 | 0 | 0 | 0 | 0 | 0 | 0 | 0 | 0 | 0 | 0 | Plant response rating, Blackgrass [5, 19]: 0; Plant response rating, Galium [6, 19]: 0; Plant response rating, Barnyardgrass [7, 20]: 0; Plant response rating, Barnyardgrass [7, 19]: 0; Plant response rating, Corn [8, 19]: 0; Plant response rating, Pigweed [9, 20]: 0; Plant response rating, Pigweed [9, 19]: 0; Plant response rating, Ragweed [10, 20]: 0; Plant response rating, Ragweed [10, 19]: 0; Plant response rating, Ryegrass, Italian [11, 20]: 0; Plant response rating, Ryegrass, Italian [11, 19]: 0; Plant response rating, Kochia [12, 20]: 0; Plant response rating, Kochia [12, 19]: 0; Plant response rating, Wheat [13, 19]: 0; Plant response rating, Foxtail, Giant [14, 20]: 0; Plant response rating, Foxtail, Giant [14, 19]: 0
FC(F)(F)c1ccnc(-c2c(Cl)cccc2Oc2ncc(Cl)cn2)c1 [Compound 159] | 0 | 0 | 0 | 0 | 0 | 70 | 0 | 0 | 20 | 90 | 40 | 0 | 0 | 0 | 0 | 20 | 0 | 20 | 0 | 20 | Plant response rating, Blackgrass [5, 16]: 30; Plant response rating, Galium [6, 16]: 100; Plant response rating, Barnyardgrass [7, 16]: 20; Plant response rating, Barnyardgrass [7, 18]: 60; Plant response rating, Corn [8, 16]: 30; Plant response rating, Pigweed [9, 16]: 100; Plant response rating, Pigweed [9, 18]: 100; Plant response rating, Ragweed [10, 16]: 0; Plant response rating, Ragweed [10, 18]: 0; Plant response rating, Ryegrass, Italian [11, 16]: 0; Plant response rating, Ryegrass, Italian [11, 18]: 0; Plant response rating, Kochia [12, 16]: 80; Plant response rating, Kochia [12, 18]: 30; Plant response rating, Wheat [13, 16]: 20; Plant response rating, Foxtail, Giant [14, 16]: 70; Plant response rating, Foxtail, Giant [14, 18]: 90
